Experimental data reported in patent publication US7265120B2, “Pyrazine derivatives and pharmaceutical use thereof” (Astellas Pharma Inc., priority 2004, dated 2007).

Q: Which melting point does the source give for `CC(C)n1nc(-c2nc(N3CC4CCC(C3)O4)c(N)nc2-c2ccccc2)ccc1=O` [Example 119, 6-[5-amino-6-(8-oxa-3-azabicyclo[3.2.1]oct-3-yl)-3-phenyl-2-pyrazinyl]-2-isopropyl-3(2H)-pyridazinone] here?
A: The melting point was 235 to 238 °C.

Q: For `Cn1nc(-c2nc(OCCc3ccccc3)c(N)nc2-c2ccccc2)ccc1=O` [Example 187, 6-[5-amino-3-phenyl-6-(2-phenylethoxy)-2-pyrazinyl]-2-methyl-3(2H)-pyridazinone], which melting point is on record?
A: Its melting point is 156 to 159 °C.

Q: Which melting point does the source give for `CC(C)n1nc(-c2nc(-c3ccsc3)c(N)nc2-c2ccccc2)ccc1=O` [Example 79, 6-[5-amino-3-phenyl-6-(3-thienyl)-2-pyrazinyl]-2-isopropyl-3(2H)-pyridazinone] here?
A: The melting point was 228 to 230 °C.

Q: Which melting point does the source give for `CC(C)n1nc(-c2nc(C(N)=O)c(C#N)nc2-c2ccccc2)ccc1=O` [Example 23, 3-Cyano-6-(1-isopropyl-6-oxo-1,6-dihydro-3-pyridazinyl)-5-phenyl-2-pyrazinecarboxamide] here?
A: Its melting point is 195 to 197 °C.

Q: Which melting point does the source give for `COCCOc1nc(-c2ccc(=O)n(C(C)C)n2)c(-c2ccccc2)nc1N` [Example 166, 6-[5-amino-6-(2-methoxyethoxy)-3-phenyl-2-pyrazinyl]-2-isopropyl-3(2H)-pyridazinone] here?
A: Its melting point is 128 to 130 °C.

Q: Which melting point does the source give for `CC(=O)c1nc(-c2ccc(=O)n(C(C)C)n2)c(-c2ccccc2)nc1N` [Example 94, 6-(6-acetyl-5-amino-3-phenyl-2-pyrazinyl)-2-isopropyl-3(2H)-pyridazinone] here?
A: The melting point was 234 to 236.5 °C.

Q: For `CC(C)n1nc(-c2nc(NC=O)c(C#N)nc2-c2ccccc2)ccc1=O` [Example 25, [3-Cyano-6-(1-isopropyl-6-oxo-1,6-dihydro-3-pyridazinyl)-5-phenyl-2-pyrazinyl]formamide], which melting point is on record?
A: Its melting point is 206 to 208 °C.

Q: Which melting point does the source give for `CCOC(=O)C=Cc1nc(-c2ccc(=O)n(C(C)C)n2)c(-c2ccccc2)nc1N` [Example 95, ethyl 3-[3-amino-6-(1-isopropyl-6-oxo-1,6-dihydro-3-pyridazinyl)-5-phenyl-2-pyrazinyl]acrylate] here?
A: Its melting point is 233 to 236 °C.

Q: With `COc1ccc(CN(Cc2ccc(OC)cc2)c2nc(-c3ccccc3)c(-c3ccc(=O)n(C(C)C)n3)nc2C#N)cc1` [Example 51, 3-[bis(4-methoxybenzyl)amino]-6-(1-isopropyl-6-oxo-1,6-dihydro-3-pyridazinyl)-5-phenyl-2-pyrazinecarbonitrile] as the compound, how does the melting point read?
A: The melting point was 207 to 209 °C.

Q: With `CC(C)n1nc(-c2nc(OC3CCCCC3)c(N)nc2-c2ccccc2)ccc1=O` [Example 161, 6-[5-amino-6-(cyclohexyloxy)-3-phenyl-2-pyrazinyl]-2-isopropyl-3(2H)-pyridazinone] as the compound, how does the melting point read?
A: The melting point was 161 to 163 °C.

Q: With `CC(C)n1nc(-c2nc(-c3nc(-c4ccccc4)cs3)c(N)nc2-c2ccccc2)ccc1=O` [Example 28, 6-[5-Amino-3-phenyl-6-(4-phenyl-thiazol-2-yl)-2-pyrazinyl]-2-isopropyl-3(2H)-pyridazinone] as the compound, how does the melting point read?
A: Its melting point is 240 to 242 °C.

Q: Which melting point does the source give for `CC(C)n1nc(-c2nc(NCCCc3ccccc3)c(N)nc2-c2ccccc2)ccc1=O` [Example 136, 6-{5-amino-3-phenyl-6-[(3-phenylpropyl)amino]-2-pyrazinyl}-2-isopropyl-3(2H)-pyridazinone] here?
A: Its melting point is 185.5 to 187 °C.

Q: With `CSc1nc(-c2ccc(=O)n(C)n2)c(-c2ccccc2)nc1N` [Example 61, 6-[5-amino-6-(methylthio)-3-phenyl-2-pyrazinyl]-2-methyl-3(2H)-pyridazinone] as the compound, how does the melting point read?
A: Its melting point is 204 to 205.5 °C.

Q: For `CC(C)n1nc(-c2nc(OCCOC(C)(C)C)c(N)nc2-c2ccccc2)ccc1=O` [Example 167, 6-[5-amino-6-(2-tert-butoxyethoxy)-3-phenyl-2-pyrazinyl]-2-isopropyl-3(2H)-pyridazinone], which melting point is on record?
A: Its melting point is 163 to 165 °C.

Q: With `CC(C)n1nc(-c2nc(C#Cc3ccccn3)c(N)nc2-c2ccccc2)ccc1=O` [Example 74, 6-[5-amino-3-phenyl-6-(2-pyridylethynyl)-2-pyrazinyl]-2-isopropyl-3(2H)-pyridazinone] as the compound, how does the melting point read?
A: The melting point was 245.5 to 247 °C.

Q: For `CCn1nc(-c2nc(C(=O)O)c(NCc3ccc(OC)cc3)nc2-c2ccccc2)ccc1=O` [Example 57, 6-(1-ethyl-6-oxo-1,6-dihydro-3-pyridazinyl)-3-[(4-methoxybenzyl)amino]-5-phenyl-2-pyrazinecarboxylic acid], which melting point is on record?
A: Its melting point is > 250 °C.

Q: For `CC(C)n1nc(-c2nc(OCc3ccccc3)c(N)nc2-c2ccccc2)ccc1=O` [Example 162, 6-[5-amino-6-(benzyloxy)-3-phenyl-2-pyrazinyl]-2-isopropyl-3(2H)-pyridazinone], which melting point is on record?
A: The melting point was 118 to 120 °C.

Q: With `CC(C)n1nc(-c2nc(N)c(C(N)=O)nc2-c2ccccc2)ccc1=O` [Example 29, 3-Amino-5-(1-isopropyl-6-oxo-1,6-dihydro-3-pyridazinyl)-6-phenyl-2-pyrazinecarboxamide] as the compound, how does the melting point read?
A: The melting point was 217 to 220 °C.

Q: With `Cn1nc(-c2nc(C(=O)O)c(N)nc2-c2ccccc2)ccc1=O` [Example 19, 3-Amino-6-(1-methyl-6-oxo-1,6-dihydro-3-pyridazinyl)-5-phenyl-2-pyrazinecarboxylic acid] as the compound, how does the melting point read?
A: The melting point was 238 °C (dec.).

Q: With `Cn1nc(-c2nc(NC3CCN(Cc4ccccc4)C3)c(N)nc2-c2ccccc2)ccc1=O` (stereo not shown) [Example 128, 6-{5-amino-6-[(1-benzyl-3-pyrrolidinyl)amino]-3-phenyl-2-pyrazinyl}-2-methyl-3(2H)-pyridazinone] as the compound, how does the melting point read?
A: The melting point was 183 to 185 °C.

Q: For `COCCOc1nc(-c2ccc(=O)n(C)n2)c(-c2ccccc2)nc1N` [Example 180, 6-[5-amino-6-(2-methoxyethoxy)-3-phenyl-2-pyrazinyl]-2-methyl-3(2H)-pyridazinone], which melting point is on record?
A: The melting point was 139 to 141 °C.

Q: For `CC(=O)N1CCN(c2nc(-c3ccc(=O)n(C(C)C)n3)c(-c3ccccc3)nc2N)CC1` [Example 117, 6-[6-(4-acetyl-1-piperazinyl)-5-amino-3-phenyl-2-pyrazinyl]-2-isopropyl-3(2H)-pyridazinone], which melting point is on record?
A: Its melting point is 221 to 225 °C.

Q: With `CC(C)n1nc(-c2nc([S+](C)[O-])c(N)nc2-c2ccccc2)ccc1=O` (stereo not shown) [Example 55, 6-[5-amino-6-(methylsulfinyl)-3-phenyl-2-pyrazinyl]-2-isopropyl-3(2H)-pyridazinone] as the compound, how does the melting point read?
A: The melting point was 225 to 227 °C.

Q: Which melting point does the source give for `Cn1nc(-c2nc(-c3ccccc3)c(N)nc2-c2ccccc2)ccc1=O` [Example 85, 6-(5-amino-3,6-diphenyl-2-pyrazinyl)-2-methyl-3(2H)-pyridazinone] here?
A: Its melting point is 220 to 221.5 °C.

Q: For `CC(C)n1nc(-c2nc(Br)c(N=O)nc2-c2ccccc2)ccc1=O` [Example 67, 6-(6-bromo-5-nitroso-3-phenyl-2-pyrazinyl)-2-isopropyl-3(2H)-pyridazinone], which melting point is on record?
A: The melting point was 164 to 166 °C.

Q: For `Cc1nc(-c2ccc(=O)n(C(C)C)n2)c(-c2ccccc2)nc1N` [Example 3, 6-(5-amino-6-methyl-3-phenyl-2-pyrazinyl)-2-isopropyl-3(2H)-pyridazinone], which melting point is on record?
A: The melting point was 208 to 209.5 °C.

Q: With `CC(C)n1nc(-c2nc(-c3ccco3)c(N)nc2-c2ccccc2)ccc1=O` [Example 88, 6-[5-amino-6-(2-furyl)-3-phenyl-2-pyrazinyl]-2-isopropyl-3(2H)-pyridazinone] as the compound, how does the melting point read?
A: The melting point was 211 to 213 °C.

Q: Which melting point does the source give for `CC(C)n1nc(-c2[nH]c(=O)c(N)nc2-c2ccccc2)ccc1=O` [Example 174, 6-(5-amino-6-oxo-3-phenyl-1,6-dihydro-2-pyrazinyl)-2-isopropyl-3(2H)-pyridazinone] here?
A: The melting point was > 250 °C.
